In PubChem BioAssay (NCI):
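Growth conditions: 96-well plates. Treatment: test compound, 48 hours, 5 concentrations. Analysis: linear interpolation between bracketing concentrations; unreached endpoints set to highest concentration. The concentration for 50% growth inhibition is given as GI50. TGI marks complete inhibition of growth.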

Experiments:
Experiment in all cases: NCI anticancer screen, dose series, 48 h
A549 NSCLC = test system: A549 NSCLC
COLO 205 colon = test system: COLO 205 colon
ACHN renal = test system: ACHN renal
HL-60(TB) leukemia = test system: HL-60(TB) leukemia
HOP-62 NSCLC = test system: HOP-62 NSCLC
HCC-2998 colon = test system: HCC-2998 colon
NCI-H522 lung = test system: NCI-H522 lung
RPMI-8226 leukemia = test system: RPMI-8226 leukemia
MALME-3M melanoma = test system: MALME-3M melanoma
OVCAR-8 ovarian = test system: OVCAR-8 ovarian

| Compound | GI50 (A549 NSCLC) [µM] | TGI (A549 NSCLC) [µM] | GI50 (COLO 205 colon) [µM] | TGI (COLO 205 colon) [µM] | GI50 (ACHN renal) [µM] | TGI (ACHN renal) [µM] | GI50 (HL-60(TB) leukemia) [µM] | TGI (HL-60(TB) leukemia) [µM] | GI50 (HOP-62 NSCLC) [µM] | TGI (HOP-62 NSCLC) [µM] | GI50 (HCC-2998 colon) [µM] | TGI (HCC-2998 colon) [µM] | GI50 (NCI-H522 lung) [µM] | TGI (NCI-H522 lung) [µM] | GI50 (RPMI-8226 leukemia) [µM] | TGI (RPMI-8226 leukemia) [µM] | GI50 (MALME-3M melanoma) [µM] | TGI (MALME-3M melanoma) [µM] | GI50 (OVCAR-8 ovarian) [µM] | TGI (OVCAR-8 ovarian) [µM] |
| --- | --- | --- | --- | --- | --- | --- | --- | --- | --- | --- | --- | --- | --- | --- | --- | --- | --- | --- | --- | --- |
| CCCCC[C@H]1C/C=C2/C(=O)C(Cl)=C[C@@H]2C/C=C\CCCC(=O)O[C@@H](CCCCC)C/C=C2/C(=O)C(Cl)=C[C@@H]2C/C=C\CCCC(=O)O1 | 0.426 | 1.15 | 0.316 | 0.687 | 0.623 | 2.15 | 0.429 | 1.27 | 0.416 | 1.01 | 0.349 | 0.651 | 0.352 | 0.78 | 0.188 | 0.973 | 0.504 | 1.85 | 0.38 | 1.59 |
| CC(=O)NC(CCCN(Cc1ccccc1)C(=O)N(CCCl)N=O)C(=O)NCc1ccccc1 (stereo not given) | – | > 100 | – | > 100 | – | > 96.3 | – | 57.1 | – | 46.3 | – | > 100 | – | > 80.6 | – | > 100 | – | > 75.6 | – | > 100 |
| CCc1c[nH]c2ncnc(N3CC[C@@](N)(CNC(=O)c4ccc(F)cc4F)C3)c12 | 24.5 | > 86.9 | 29.8 | > 100 | 23.8 | > 100 | 38.7 | > 100 | 30.5 | > 100 | 50.7 | > 100 | 29.6 | > 75.7 | 28.6 | > 100 | 33.4 | > 91.2 | 48.1 | > 100 |
| CC1=NN(C(=O)c2ccc(Cl)cc2)C(=O)/C1=C/c1cccc([N+](=O)[O-])c1 | – | > 100 | – | > 100 | – | > 100 | – | > 100 | – | > 100 | – | > 100 | – | > 100 | – | > 100 | – | > 100 | – | > 100 |
| COc1ccc2c(c1)nc(N)c1c3cccnc3cn21 | 0.0565 | 16.6 | 0.0452 | 0.668 | 0.0938 | 15 | 0.0313 | 18.3 | 0.273 | > 78.9 | 0.103 | 17.5 | 0.0411 | 3.45 | 0.0546 | 34.2 | 0.153 | 25.7 | 0.0898 | > 54.5 |
| CC(C)=CC(=O)CC(=O)C(=O)Nc1ccc(Cl)c(Cl)c1 | – | > 100 | – | > 100 | – | > 100 | – | > 100 | – | > 100 | – | > 100 | – | > 100 | – | > 100 | – | > 100 | – | > 100 |
| C=C[C@]1(C)C=C2C(=O)[C@@]3(O)OC[C@@]4(CCCC(C)(C)C43O)C2(O)C(O)C1 (stereo not given in full) | 14.5 | 30.8 | 1.54 | 3.08 | 1.54 | 3.1 | 3.41 | 13 | 11.4 | 24.7 | 17.2 | 31.5 | 0.631 | 2.84 | 21 | > 100 | 1.36 | 3.02 | 4.03 | 15 |
| O=C(Nc1ccc2c(c1)oc(=O)c1ccccc12)C(Cl)Cl | – | > 100 | – | > 100 | – | > 100 | – | 25.5 | – | > 100 | – | > 100 | – | > 100 | – | 32.5 | – | > 100 | – | > 100 |
| Nc1nc(Nc2cccc(F)c2)nc2ccccc12 | 36.9 | > 100 | 15.9 | 34 | 20.4 | 76.8 | 25.5 | 68.4 | 17.1 | 38.5 | 18 | 37.3 | 23.9 | 54 | 23.1 | 71.1 | 18.6 | 37.5 | 31.9 | > 100 |
| CCOC(=O)c1c(C)n(Cc2ccc(Cl)cc2Cl)c2c1cc1oc(=O)c(=O)n3c(Cc4ccccc4)nc2c13 | 3.64 | 13.5 | 4.65 | 25.3 | 3.06 | 11.8 | 2.09 | 6.09 | 5.37 | 18.3 | 2.25 | 5.04 | 6.1 | 25.5 | 1.71 | 3.57 | 5.3 | 12.9 | 5.22 | 25.8 |
| O=C1c2ccccc2C(=O)C1C(c1ccc([N+](=O)[O-])cc1)C1C(=O)c2ccccc2C1=O | – | > 100 | – | > 100 | – | > 100 | – | > 100 | – | > 100 | – | > 100 | – | > 100 | – | > 100 | – | > 100 | – | 72.8 |
| CCOC(=O)/C(C#N)=C1\N[C@H](C(=O)OCC)CO1 | – | > 100 | – | > 100 | – | > 100 | – | > 100 | – | > 100 | – | > 100 | – | > 100 | – | > 100 | – | > 100 | – | > 100 |
| COC(=O)[C@@H]1CCCN1C(=O)[C@@H]1CCCN1C(=O)[C@@H](Cc1c[nH]c2ccccc12)NC(=S)Nc1cc(C(F)(F)F)cc(C(F)(F)F)c1 | 5.31 | > 100 | 2.41 | 5.5 | 4.28 | > 100 | 4.26 | > 100 | 8.35 | > 100 | 2.9 | 9.05 | 3.98 | 26.5 | 3.34 | > 100 | 5.17 | 24.7 | 5.83 | > 100 |
| CCSc1nc(COC(=O)NC)c(COC(=O)NC)n1C | – | > 100 | – | > 85.1 | – | 35.5 | – | > 100 | – | > 100 | – | > 100 | – | > 95.4 | – | > 100 | – | > 100 | – | > 100 |
| COc1ccc2c(c1)C(=O)c1c-2n(CCCN2CCOCC2)c(=O)c2ccccc12 | 1.97 | 8.41 | 2.81 | > 41 | 1.69 | 4.07 | 4.59 | > 100 | 1.7 | 6.16 | 3.08 | 20.4 | 1.52 | 13.9 | 1.35 | 5.59 | 3.44 | 18.7 | 3.45 | > 100 |
